# Key:
# Type in all cases: in vivo, BALB/c male mice
# [1] = system: mouse model of asthma (ova sensitized mice); assay: Ova-induced airway constriction (fall of SGaw) in sensitized mice, dual-chamber whole body plethysmography
# Protocol: (§1) BALB/c male mice, eight-ten weeks old, weighing 18-22 grams were acclimatized for one week under the laboratory conditions. Mice were sensitized by injecting intraperitoneally 0.2 ml of saline containing 10 micrograms ovalbumin (ova) (sigma, USA) adsorbed on 2 mg aluminum hydroxide gel on days 0, 7 and 14 followed by aerosol inhalation for 5 consecutive days, from day 19 to 23 with 2% ova (in saline w/v) for 30 minutes daily. Aerosol challenge was performed by placing mice in Plexiglas chamber (20×20×10 cm^3) and ova or saline alone was aerosolized using a nebulizer (devilbiss, model 645, USA) at an airflow rate of 7 litre/minute, sham-sensitized mice received 0.2 ml of saline containing only 2 mg al(oh)3 on days, 0, 7 and 14 followed by inhalation of aerosol of saline without ova for 5 consecutive days.
# (§2) The compound PBPB (sigma, USA) was dissolved in absolute alcohol (10 mg/ml). PBPB (20ul by volume) was given orally to each mouse. To evaluate the effect of PBPB on sensitization and the development of impaired airway sensitivity (preventive effect, FIG. 1a), five groups (six mice in each) of mice were used. One group was sham-sensitized control and another group was kept as sensitized control. The remaining three groups were given orally three different concentrations of PBPB (0.1, and 10 mg/kg body weight) daily starting from first to the last day of the sensitization the sham-sensitized and sensitized control mice were given only vehicle (20 ul alcohol) in a similar fashion. Initial measurements of specific airway conductance and airway reactivity of all the animals were carried out before starting the experiment ovalbumin induced airway constriction and airway reactivity were measured after sensitization protocol was over the measurements were done as described below (example 3,4 and 5).
# (§3) To examine the therapeutic effect of PBPB on sensitized mice (therapeutic effect, FIG. ib), mice were sensitized as before without PBPB treatment and airway constriction to ova and airway reactivity to methacholine were measured as described below animals showing at least 40% fall in specific airway conductance to ova aerosol challenge were selected for this study the sensitized mice were randomly divided into 4 groups of 6 mice in each group three groups of mice were given daily three different concentrations of PBPB in 20 ul of alcohol adjusted to contain PBPB in a dose of 0.1, and 10 mg/kg body weight respectively for week fourth group was fed only 20 ul alcohol for one week to be used as sensitized control airway constriction and airway reactivity were again measured thereafter.
# Airway calibre was measured in the term of specific airway conductance (SGaw). SGaw is a measure of the airway caliber and was estimated using a dual-chamber whole body plethysmograph (Agrawal, 1981). The dual-chamber whole body plethysmograph was designed in our laboratory to suit the size of mouse (FIG. 2). The change in the box pressure in response to breathing of the housed mouse was determined with a transducer (validyne mp 45+2 cmh20) and carrier amplifier (validyne model CD 15 carrier demodulator) that were connected to the x-channel of an oscilloscope Tektronix, model 6116, USA). […]
# Animals were acclimatized in the body box in the beginning of the study and at the time of recording the loop, each individual mouse was housed for 10 minutes to set the basal loop correctly. Values of the slopes were recorded on getting at least three similar loops. […]
# [2] = system: mouse model of asthma (ova sensitized mice); assay: Airway reactivity to methacholine (MCh PD35) in sensitized mice
# Protocol: as §1
# as §2, with “The remaining three groups were given orally three different concentrations of PBPB (0.1, and 10 mg/kg body weight) daily starting from first to the last day of the sensitization the sham-sensitized and sensitized control mice were given only vehicle (20 ul alcohol) in a similar fashion.” left out
# as §3
# Airway calibre was measured in the term of specific airway conductance (SGaw). […] The change in the box pressure in response to breathing of the housed mouse was determined with a transducer (validyne mp 45+2 cmh20) and carrier amplifier (validyne model CD 15 carrier demodulator) that were connected to the x-channel of an oscilloscope Tektronix, model 6116, USA). […]
# Ova-specific IgE = assay: Serum ova-specific IgE levels by Elisa
# Protocol: (§4) In another embodiment of the present invention, wherein after testing the compound for the preventive as well as for therapeutic values in intact conscious mice, mice were sacrificed for collecting the blood and bronchoalveolar lavage (bat) fluid to measure the levels of IgE, cytokines 11-4, IL-5 and IFN-y and homophile. Ovalbumin specific IgE levels m the sera and the levels of IL-4, IL-5 and IFN-y in the BAL fluid were measured by Elisa kits. The prevalence of eosinophils was determined in BAL fluid by flow cytometry.
# as §1
# (§5) The compound PBPB (sigma, USA) was dissolved in absolute alcohol (10 mg/ml). PBPB (20ul by volume) was given orally to each mouse. […] Initial measurements of specific airway conductance and airway reactivity of all the animals were carried out before starting the experiment ovalbumin induced airway constriction and airway reactivity were measured after sensitization protocol was over the measurements were done as described below (example 3,4 and 5). […]
# Serum IgE levels were measured in all the groups of mice by Elisa (FIG. 7). Ova-specific IgE levels were measured by enzyme linked immuno sorbent assay (Elisa). […]
# eosinophils in BAL fluid = assay: Eosinophils in BAL fluid by flow cytometry
# Protocol: as §4, §1, §5
# The levels of eosinophils in BAL fluid were detected by flowcytometry (facsvantage, Becton Dickinson, USA) using the method described by bedner et al (1999). The cells were gated on the basis of the size and fluorescence (FSC versus FL 1) and the percentage of the gated cells was determined by cell quest software. […]
# IFN-gamma, IL-4 and IL-5 = assay: Cytokines IFN-gamma, IL-4 and IL-5 in BAL fluid by Elisa kits; details: for IL-4 in BAL fluid / IL-5 in BAL fluid / IFN-γ in BAL fluid: mean SEM, n = 4; for IL-4 in BAL fluid: sensitized 143.0 ± 3.0; for IL-5 in BAL fluid: sensitized 158.7 ± 22.5; for IFN-γ in BAL fluid: sensitized 162.0 ± 45.2; for IFN-γ:IL-4 ratio in BAL fluid: sensitized 1.1
# Protocol: as §4, §1, §2, §3
# The cytokines IFN-gamma, IL-4 and IL-5 were measured in the BAL fluid by enzyme-linked ImmunoSorbent assay (Elisa) kits (BD pharmingen, USA) as per the manufacturer's protocol.
# [3] = PBPB 1 mg/kg body weight after sensitization
# [4] = PBPB 1 mg/kg body weight during sensitization
structure (smiles),measurement,setting,value
"O=C(CBr)c1ccc(Br)cc1 [PBPB, parabromophenacyl bromide]",fall of SGaw level from basal level after ova challenge,"[1]; preventive: oral 0.1 mg PBPB/kg body weight during sensitization, sensitized control fall 48%",17%
same,"fall of SGaw after ova challenge, effect of further dose increase",[1]; preventive: oral 'lo mg/kg body weight' during sensitization,did not show any additional effect
same,fall of SGaw from basal levels after ova challenge,"[1]; preventive: oral 'mg PBPB/kg body weight' (dose figure missing) during sensitization, sensitized control fall 48%",4%
same,"SGaw levels recovered, of basal SGaw levels","[1]; therapeutic: oral for one week to already sensitized mice, 10 mg PBPB/kg body weight",96%
same,"SGaw levels recovered, of normal basal levels","[1]; therapeutic: oral for one week to already sensitized mice, dose 'mg/kg body weight' (figure missing)",86%
same,"MCh PD35, of its initial values","[2]; preventive: treatment during sensitization, 10 mg/kg body weight",115%
same,"MCh PD35 recovery, of its initial levels","[2]; preventive: treatment during sensitization, dose 'mg/kg body weight' (figure missing), 24 hours after last ova challenge",93%
same,"MCh PD35 recovered, of the basal value","[2]; therapeutic: oral to sensitized mice already having airway hyper reactivity, 1 mg/kg body weight",over 81%
same,"MCh PD35 recovery, of the basal value","[2]; therapeutic: oral to sensitized mice already having airway hyper reactivity, 10 mg/kg body weight",94%
same,"serum IgE levels, effect of higher dose",Ova-specific IgE; preventive: 10 mg of PBPB/kg body weight during sensitization,did not show additional effect
same,mean serum IgE level lower compared to sensitized animals,"Ova-specific IgE; preventive: oral 1 mg/kg body weight during sensitization, sensitized mice 384±22.8 ng/ml",40%
same,fall in serum IgE levels compared to vehicle treated sensitized mice,"Ova-specific IgE; therapeutic: 1 mg/kg body weight fed for one week to already sensitized mice, p<0.05",47%
same,effective dose,"eosinophils in BAL fluid; administration to mice during and after sensitization, inhibition of inflammation (eosinophils in BAL fluid)",1 mg/kg body weight
same,levels of eosinophils in BAL fluid,eosinophils in BAL fluid; preventive: oral 1 mg/kg body weight during sensitization,prevented the rise in the eosinophils levels
same,levels of eosinophils in BAL fluid,"eosinophils in BAL fluid; therapeutic: 1 mg/kg body weight in already sensitized mice, p<0.01 vs vehicle treated sensitized mice",reduced the levels of eosinophils significantly
same,IL-4 in BAL fluid,"IFN-gamma, IL-4 and IL-5; [3]",42.4 ± 4.9 pg/mL
same,IL-5 in BAL fluid,"IFN-gamma, IL-4 and IL-5; [3]",53.4 ± 2.2 pg/mL
same,IFN-γ in BAL fluid,"IFN-gamma, IL-4 and IL-5; [3]",425.1 ± 54.0 pg/mL
same,IFN-γ:IL-4 ratio in BAL fluid,"IFN-gamma, IL-4 and IL-5; [3]",10
same,IL-4 in BAL fluid,"IFN-gamma, IL-4 and IL-5; [4]",91.0 ± 13.2 pg/mL
same,IL-5 in BAL fluid,"IFN-gamma, IL-4 and IL-5; [4]",75.1 ± 7.4 pg/mL
same,IFN-γ in BAL fluid,"IFN-gamma, IL-4 and IL-5; [4]",402 ± 14.4 pg/mL
same,IFN-γ:IL-4 ratio in BAL fluid,"IFN-gamma, IL-4 and IL-5; [4]",4.4

# From patent US20040106685A1, “Method of preventing and/or treating asthma using PBPB” (COUNCIL OF SCIENTIFIC & INDUSTRIAL RESEARCH, priority 2002, published 2004)
